Biological target: T1, human liver FBPase (Homo sapiens, UniProt P09467)
T1 construct: made in house; host or cells: E. coli
T1 sequence (P09467 2-338 limits assumed): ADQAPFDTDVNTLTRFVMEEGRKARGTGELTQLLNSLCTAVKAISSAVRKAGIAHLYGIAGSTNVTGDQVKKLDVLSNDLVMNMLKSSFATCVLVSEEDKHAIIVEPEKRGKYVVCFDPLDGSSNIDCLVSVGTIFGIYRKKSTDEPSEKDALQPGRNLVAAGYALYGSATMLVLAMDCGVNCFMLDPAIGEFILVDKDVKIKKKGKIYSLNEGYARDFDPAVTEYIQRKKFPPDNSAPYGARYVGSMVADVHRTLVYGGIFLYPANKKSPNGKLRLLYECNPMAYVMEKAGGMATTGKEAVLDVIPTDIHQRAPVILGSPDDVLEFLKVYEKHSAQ
Assay: FBPase assay (malachite green phosphate release)
Assay type: biochemical
Settings: recombinant human liver FBPase, 50 μM fructose-1,6-bisphosphate
Experimental: The following tests were carried out for evaluating the inhibitory activity of the compounds of the present invention against human liver FBPase (Swissprot Data base reference PO9467, entry F16P_HUMAN).
Human liver FBPase cDNA (NM_000507) was purchased from Origene Technologies, Inc, subcloned in a vector for expression in E. Coli., and sequenced. Recombinant human liver FBPase (hlFBPase) was purified according to the following protocol that uses heat denaturation similarly to that described by El-Maghrabi et al. [El-Maghrabi, M. R. et al. “Isolation of a human liver fructose-1,6-bisphosphatase cDNA and expression of the protein in Escherichia coli.” J Biol Chem 268:9466-9472, 1993.]. Briefly, E. coli cells, transiently expressing very high levels of soluble and active human liver FBPase, were suspended in 20 mM Tris-HCl pH 7.5, 1 mM EDTA, 1 mM DTT and were lysed by French press. The soluble extract was heat denatured at 65° C. for 5 min, and insoluble, denatured proteins were removed by centrifugation. The extract was then applied to a BioRad Macro-Prep High Q column equilibrated with 20 mM Tris-HCl pH 7.5, 1 mM EDTA, 1 mM DTT and the flow-through (containing FBPase activity) was collected and applied to a BioRad Macro-Prep HS column equilibrated with 20 mM HEPES pH 7.2, 1 mM DTT. A gradient of increasing NaCl concentration was then applied to the HS column and fractions were collected. Fractions containing active FBPase were pooled and further purified by size exclusion chromatography on a Sephacryl S200 column equilibrated in 20 mM Tris-HCl pH 7.5, 150 mM NaCl, 1 mM EDTA, 1 mM DTT. Purity of the enzyme preparation was >90% as assessed by Mass spectrometry.
Recombinant human liver FBPase (hlFBPase) activity was assayed through measuring the inorganic phosphate release that results from the hydrolysis of Fructose-1,6-bisphosphate by the enzyme. As described by Baykov A. A. et al. in [Baykov A. A et al., “Malachite Green procedure for orthophosphate determination and its use in alkaline phosphatase-based enzyme immunoassays”. Anal. Biochem., 171:266-270, 1988], inorganic phosphate can be readily quantified by spectrophotometry at 620 nm after complexation with ammonium molybdate/malachite green reagent. Enzymatic reaction was carried out with modifications of the procedure described by Wright S. W. et al. [Wright S. W. et al., “Anilinoquinazoline inhibitors of Fructose-1,6-bisphosphatase bind to a novel allosteric site: synthesis, in vitro characterization, and X-ray crystallography”. J. Med. Chem. 45:3865-3877, 2002]. Specifically, the reaction was carried out in 96 well plates in a final volume of 100 μl in the presence or in the absence of allosteric inhibitors. Reaction was started adding 25 ng of hlFBPase to the reaction mixture containing 50 mM HEPES-KOH buffer pH 7.2, 2 mM MgCl2, 2 mM EDTA, 1 mM DTT, 50 μM fructose-1,6-bisphosphate and 1% DMSO. After 50 minutes incubation at room temperature, the phosphate released was allowed to form a colored complex for 10 min by adding 150 μl of ammonium molybdate/malachite green reagent containing 0.03% malachite green, 0.2% ammonium molybdate, 0.05% Triton X-100 and 0.7 M H2SO4 in water that was stirred for 30 min at room temperature and filtered through 0.2 μm filter. Under these conditions, the assay was linear with time and able to detect FBPase inhibition after spectrophotometric read-out at 620 nm.

Row | Compound | IC50 [nM]
1 | COCCc1sc(S(=O)(=O)NC(=O)Nc2cc(SC)cc(N)n2)cc1C [Compound 32, N-{[6-Amino-4-(methylthio)pyridin-2-yl]carbamoyl}-5-(2-methoxyethyl)-4-methylthiophene-2-sulfonamide] | 433
2 | O=C(Nc1cc(Br)ccn1)NS(=O)(=O)c1ccc(Cl)cc1 [Compound 69, N-[(4-Bromopyridin-2-yl)carbamoyl]-4-chlorobenzenesulfonamide] | 3070
3 | Cc1cc(S(=O)(=O)NC(=O)Nc2cc(C(F)(F)F)c(F)c(N)n2)sc1CCO [Compound 84, N-{[6-Amino-5-fluoro-4-(trifluoromethyl)pyridin-2-yl]carbamoyl}-5-(2-hydroxyethyl)-4-methylthiophene-2-sulfonamide] | 429
4 | COCCc1sc(S(=O)(=O)NC(=O)Nc2cc([S+](C)[O-])cc(NC(N)=O)n2)cc1C (centres unmarked) [Compound 95, N-{[6-(Carbamoylamino)-4-(methylsulfinyl)pyridin-2-yl]carbamoyl}-5-(2-methoxyethyl)-4-methylthiophene-2-sulfonamide] | 5080
5 | COCCc1sc(S(=O)(=O)NC(=O)Nc2cc(C(F)(F)F)cc(-c3ccc(C(F)(F)F)cc3)n2)cc1C [Compound 42, 5-(2-Methoxyethyl)-4-methyl-N-({4-(trifluoromethyl)-6-[4-(trifluoromethyl)phenyl]pyridin-2-yl}carbamoyl)thiophene-2-sulfonamide] | 760
6 | COCCc1sc(S(=O)(=O)NC(=O)Nc2cc(Br)cc(NC(=O)N(C)C)n2)cc1C [Compound 54, N-({4-Bromo-6-[(dimethylcarbamoyl)amino]pyridin-2-yl}carbamoyl)-5-(2-methoxyethyl)-4-methylthiophene-2-sulfonamide] | 1520
7 | COC(=O)c1cc(C(F)(F)F)cc(NC(=O)NS(=O)(=O)c2cc(C)c(CCOC(C)=O)s2)n1 [Compound 92, Methyl-6-[({[5-(2-acetoxyethyl)-4-methyl-2-thienyl]sulfonyl}carbamoyl)amino]-4-(trifluoromethyl)pyridine-2-carboxylate] | 1610
8 | CNC(=O)Nc1cc(SC)cc(NC(=O)NS(=O)(=O)c2cc(C)c(CCOC)s2)n1 [Compound 14, 5-(2-Methoxyethyl)-4-methyl-N-({6-[(methylcarbamoyl)amino]-4-(methylthio)pyridin-2-yl}carbamoyl)thiophene-2-sulfonamide] | 167
9 | Cc1cc(C(F)(F)F)cc(NC(=O)NS(=O)(=O)c2csc(C)c2)n1 [Compound 120, 5-Methyl-N-{[6-methyl-4-(trifluoromethyl)pyridin-2-yl]carbamoyl}thiophene-3-sulfonamide] | 831
10 | C=C(C)CNc1cc(SC)cc(NC(=O)NS(=O)(=O)c2cc(C)c(CCOC)s2)n1 [Compound 80, 5-(2-Methoxyethyl)-4-methyl-N-({6-[(2-methylprop-2-en-1-yl)amino]-4-(methylthio)pyridin-2-yl}carbamoyl)thiophene-2-sulfonamide] | 1610
11 | COCCOc1ccc(S(=O)(=O)NC(=O)Nc2cc(Br)cc(NCC(F)F)n2)cc1C [Compound 51, N-({4-Bromo-6-[(2,2-difluoroethyl)amino]pyridin-2-yl}carbamoyl)-4-(2-methoxyethoxy)-3-methylbenzenesulfonamide] | 1110
12 | Cc1cccc(S(=O)(=O)NC(=O)Nc2cc(Br)cc(N)n2)c1 [Compound 36, N-[(6-Amino-4-bromopyridin-2-yl)carbamoyl]-3-methylbenzenesulfonamide] | 566
13 | Nc1cc(Br)cc(NC(=O)NS(=O)(=O)c2ccc3c(c2)CCO3)n1 [Compound 34, N-[(6-Amino-4-bromopyridin-2-yl)carbamoyl]-2,3-dihydro-1-benzofuran-5-sulfonamide] | 481
14 | CCOc1cc(NC(=O)NC)nc(NC(=O)NS(=O)(=O)c2cc(C)c(CCOC)s2)c1 [Compound 35, N-({4-Ethoxy-6-[(methylcarbamoyl)amino]pyridin-2-yl}carbamoyl)-5-(2-methoxyethyl)-4-methylthiophene-2-sulfonamide] | 494
15 | Cc1cccc(S(=O)(=O)NC(=O)Nc2cc(Br)cc(NCC(F)F)n2)c1 [Compound 39, N-({4-Bromo-6-[(2,2-difluoroethyl)amino]pyridin-2-yl}carbamoyl)-3-methylbenzenesulfonamide] | 610
16 | O=C(Nc1cc(Br)ccn1)NS(=O)(=O)c1cccc(Cl)c1 [Compound 55, N-[(4-Bromopyridin-2-yl)carbamoyl]-3-chlorobenzenesulfonamide] | 1550
17 | COCCc1sc(S(=O)(=O)NC(=O)Nc2cc(OC)cc(C(N)=O)n2)cc1C [Compound 119, 6-[({[5-(2-Methoxyethyl)-4-methyl-2-thienyl]sulfonyl}carbamoyl)amino]-4-(methoxy)pyridine-2-carboxamide] | 4800
18 | COCCc1sc(S(=O)(=O)NC(=O)Nc2cc(OC)cc(NC(=O)N(C)C)n2)cc1C [Compound 59, N-({6-[(Dimethylcarbamoyl)amino]-4-methoxypyridin-2-yl}carbamoyl)-5-(2-methoxyethyl)-4-methylthiophene-2-sulfonamide] | 2030
19 | COCCc1sc(S(=O)(=O)NC(=O)Nc2cc(SC)cc(NC(N)=O)n2)cc1C [Compound 17, N-{[6-(Carbamoylamino)-4-(methylthio)pyridin-2-yl]carbamoyl}-5-(2-methoxyethyl)-4-methylthiophene-2-sulfonamide] | 185
20 | CNC(=O)Nc1cc(OC)cc(NC(=O)NS(=O)(=O)c2cn(C)c3c(OCCOC)cccc23)n1 [Compound 49] | 1060
21 | CNC(=O)Nc1cc(OC)cc(NC(=O)NS(=O)(=O)c2csc(COC)c2)n1 [Compound 29, 5-(Methoxymethyl)-N-({4-methoxy-6-[(methylcarbamoyl)amino]pyridin-2-yl}carbamoyl)thiophene-3-sulfonamide] | 420
22 | CCOC(=O)c1cc(N)nc(NC(=O)NS(=O)(=O)c2cc(C)c(CCOC)s2)c1 [Compound 100, Ethyl-2-amino-6-[({[5-(2-methoxyethyl)-4-methyl-2 thienyl]sulfonyl}carbamoyl)amino]isonicotinate] | 3410
23 | CNC(=O)c1cc(N)nc(NC(=O)NS(=O)(=O)c2cc(C)c(CCOC)s2)c1 [Compound 104, 2-Amino-6-[({[5-(2-methoxyethyl)-4-methyl-2-thienyl]sulfonyl}carbamoyl)amino]-N-methylisonicotinamide] | > 100000
24 | CNC(=S)Nc1cc(OC)cc(NC(=O)NS(=O)(=O)c2cc(C)c(CCOC)s2)n1 [Compound 18, 5-(2-Methoxyethyl)-N-[(4-methoxy-6-{[(methylamino)carbonothioyl]amino}pyridin-2-yl)carbamoyl]-4-methylthiophene-2-sulfonamide] | 185
25 | COCCc1sc(S(=O)(=O)NC(=O)Nc2cc(SC)cc(C(N)=NO)n2)cc1C [Compound 115, N′-Hydroxy-6-[({[5-(2-methoxyethyl)-4-methyl-2-thienyl]sulfonyl}carbamoyl)amino]-4-(methylthio)pyridine-2-carboximidamide] | 2780
26 | COc1cc(NC(N)=O)nc(NC(=O)NS(=O)(=O)c2csc(C)c2)c1 [Compound 22, N-{[6-(Carbamoylamino)-4-methoxypyridin-2-yl]carbamoyl}-5-methylthiophene-3-sulfonamide] | 230
